Measurements published in ChEMBL document CHEMBL1137749, “Antifungal unsaturated cyclic Mannich ketones and amino alcohols: study of mechanism of action” (2009).
Values after ≈ are worked out from the molar mass of the structure shown. Active and inactive are the calls of the source. The calls are words filed in the database; no cut-off is given here.

Legend:
[1] = test system: Candida albicans; assay: Antifungal activity against Candida albicans ATCC 90028 after 48 hrs by macro tube dilution method; format: functional; conditions: ATCC 90028, 48 h
[2] = test system: Pichia kudriavzevii; assay: Antifungal activity against Candida krusei ATCC 30068 after 48 hrs by macro tube dilution method; format: functional; conditions: ATCC 30068, 48 h
[3] = test system: Saccharomyces cerevisiae; assay: Antifungal activity against Saccharomyces cerevisiae after 48 hrs by macro tube dilution method; format: functional
[4] = test system: Nakaseomyces glabratus; assay: Antifungal activity against Candida glabrata ATCC 3916 after 48 hrs by macro tube dilution method; format: functional; conditions: ATCC 3916, 48 h
[5] = test system: Candida parapsilosis; assay: Antifungal activity against Candida parapsilosis ATCC 22019 after 48 hrs by macro tube dilution method; format: functional; conditions: Lodderomyces parapsilosis, ATCC 22019, 48 h
[6] = test system: Aspergillus sp.; assay: Antifungal activity against Aspergillus sp. after 48 hrs by macro tube dilution method; format: functional
[7] = test system: Candida albicans; assay: Antifungal activity against Candida albicans ATCC 90028 assessed as inhibition of fungal ergosterol synthesis at 0.5 times MIC after 16 hrs by UV spectrophotometry; format: functional, organism-based
[8] = test system: Candida albicans; assay: Inhibition of chitin synthase in Candida albicans ATCC 90028 at 1.5 times MIC by liquid scintillation analyzer relative to nikkomycin
[9] = species on record: Rattus norvegicus; assay: Inhibition of lactate dehydrogenase in Wistar rat kidney at 1.5 times MIC relative to control
[10] = test system: Candida albicans; assay: Antifungal activity against Candida albicans ATCC 90028 assessed as changes in fungal protein expression at 0.5 time MIC after 1 hr by electrophoresis-based microchip technology; format: functional, organism-based
[11] = test system: Candida albicans; assay: Antifungal activity against Candida albicans ATCC 90028 assessed as changes in fungal protein expression at 2 times MIC after 1 hr by electrophoresis-based microchip technology; format: functional, organism-based

Compound	MIC [1] [µg/mL]	MIC [2] [µg/mL]	MIC [3] [µg/mL]	MIC [4] [µg/mL]	MIC [5] [µg/mL]	MIC [6] [µg/mL]	Activity [8]	inhibition [9]	inhibition [8]	Activity [7]	Activity [10]	Activity [11]
O[C@H]1/C(=C/c2ccccc2)CCC[C@@H]1CN1CCOCC1 (relative stereo)	200 (≈ 696 µM)	200 (≈ 696 µM)	200 (≈ 696 µM)	> 200	> 200	> 200						
O[C@H]1/C(=C/c2ccccc2)CCCCC[C@H]1CN1CCCCC1 (relative stereo)	100 (≈ 319 µM)	6.25 (≈ 19.9 µM)	6.25 (≈ 19.9 µM)	50 (≈ 159 µM)	50 (≈ 159 µM)	50 (≈ 159 µM)	inactive					
O[C@H]1/C(=C/c2ccccc2)CCCC[C@H]1CN1CCCCC1 (relative stereo)	> 200	200 (≈ 668 µM)	50 (≈ 167 µM)	200 (≈ 668 µM)	> 200	200 (≈ 668 µM)						
O=C1/C(=C/c2ccccc2)CCCCCC1CN1CCCCC1 (stereo not given)	100 (≈ 321 µM)	200 (≈ 642 µM)	100 (≈ 321 µM)	> 200	200 (≈ 642 µM)	100 (≈ 321 µM)		30%	50%			
O[C@H]1/C(=C/c2ccccc2)CCCC[C@H]1CN1CCOCC1 (relative stereo)	> 200	> 200	> 200	> 200	> 200	> 200						
COc1ccc(/C=C2\CCCC(CN3CCOCC3)C2=O)cc1 (stereo not given)	25 (≈ 79.3 µM)	25 (≈ 79.3 µM)	12.5 (≈ 39.6 µM)	> 200	12.5 (≈ 39.6 µM)	> 200						
O[C@H]1/C(=C/c2ccccc2)CCCC[C@@H]1CN1CCCCC1 (relative stereo)	50 (≈ 167 µM)	100 (≈ 334 µM)	25 (≈ 83.5 µM)	100 (≈ 334 µM)	100 (≈ 334 µM)	> 200						
CC1CCN(C[C@H]2CCC/C(=C\c3ccccc3)[C@@H]2O)CC1 (relative stereo)	> 200	> 200	100 (≈ 334 µM)	> 200	> 200	> 200						
O[C@H]1/C(=C/c2ccccc2)CCCCC[C@H]1CN1CCOCC1 (relative stereo)	200 (≈ 634 µM)	200 (≈ 634 µM)	100 (≈ 317 µM)	200 (≈ 634 µM)	200 (≈ 634 µM)	> 200	Active					
O[C@H]1/C(=C/c2ccccc2)CCC[C@H]1CN1CCOCC1 (relative stereo)	> 200	> 200	> 200	> 200	> 200	> 200						
O=C1/C(=C/c2ccccc2)CCCCC1CN1CCOCC1 (stereo not given)	25 (≈ 83.5 µM)	100 (≈ 334 µM)	50 (≈ 167 µM)	> 200	100 (≈ 334 µM)	200 (≈ 668 µM)		inactive	24%	inactive		
O=C1/C(=C/c2ccccc2)CCCC1CN1CCOCC1 (stereo not given)	25 (≈ 87.6 µM)	25 (≈ 87.6 µM)	3.12 (≈ 11 µM)	> 200	12.5 (≈ 43.8 µM)	> 200						
COc1ccc(/C=C2\CCCC(CN3CCOCC3)C2=O)cc1OC (stereo not given)	25 (≈ 72.4 µM)	50 (≈ 145 µM)	25 (≈ 72.4 µM)	100 (≈ 289 µM)	50 (≈ 145 µM)	> 200						
O=C1/C(=C/c2ccccc2)CCCCCC1CN1CCOCC1 (stereo not given)	> 200	> 200	200 (≈ 638 µM)	> 200	> 200	> 200			Active			
Cc1ccc(/C=C2\CCCC(CN3CCOCC3)C2=O)cc1 (stereo not given)	100 (≈ 334 µM)	200 (≈ 668 µM)	3.12 (≈ 10.4 µM)	> 200	25 (≈ 83.5 µM)	> 200						
O[C@@H]1/C(=C/c2ccccc2)CC[C@H]1CN1CCCCC1 (relative stereo)	100 (≈ 368 µM)	50 (≈ 184 µM)	50 (≈ 184 µM)	> 200	> 200	> 200						

The next lines start with results.

MIC [1] [µg/mL]	MIC [2] [µg/mL]	MIC [3] [µg/mL]	MIC [4] [µg/mL]	MIC [5] [µg/mL]	MIC [6] [µg/mL]	Activity [8]	inhibition [9]	inhibition [8]	Compound	Activity [7]	Activity [10]	Activity [11]
25 (≈ 92.8 µM)	25 (≈ 92.8 µM)	12.5 (≈ 46.4 µM)	25 (≈ 92.8 µM)	12.5 (≈ 46.4 µM)	100 (≈ 371 µM)				O=C1/C(=C/c2ccccc2)CCCC1CN1CCCC1 (stereo not given)			
12.5 (≈ 41.7 µM)	12.5 (≈ 41.7 µM)	6.25 (≈ 20.9 µM)	12.5 (≈ 41.7 µM)	6.25 (≈ 20.9 µM)	100 (≈ 334 µM)				COc1cccc(/C=C2\CCC(CN3CCCCC3)C2=O)c1 (stereo not given)			
1.56 (≈ 4.95 µM)	6.25 (≈ 19.8 µM)	3.12 (≈ 9.91 µM)	3.12 (≈ 9.91 µM)	6.25 (≈ 19.8 µM)	> 200				O=C1/C(=C/c2ccc3c(c2)OCO3)CCC1CN1CCOCC1 (stereo not given)	inactive		
6.25 (≈ 23.1 µM)	12.5 (≈ 46.2 µM)	1.56 (≈ 5.77 µM)	12.5 (≈ 46.2 µM)	6.25 (≈ 23.1 µM)	100 (≈ 370 µM)			inactive	O=C1/C(=C/c2ccccc2)CCC1CN1CCNCC1 (stereo not given)		inactive	inactive
6.25 (≈ 24.5 µM)	6.25 (≈ 24.5 µM)	3.12 (≈ 12.2 µM)	12.5 (≈ 49 µM)	6.25 (≈ 24.5 µM)	50 (≈ 196 µM)				O=C1/C(=C/c2ccccc2)CCC1CN1CCCC1 (stereo not given)		inactive	inactive
3.12 (≈ 11.5 µM)	3.12 (≈ 11.5 µM)	0.8 (≈ 2.95 µM)	6.25 (≈ 23 µM)	3.12 (≈ 11.5 µM)	50 (≈ 184 µM)				O=C1/C(=C/c2ccccc2)CCC1CN1CCOCC1 (stereo not given)			
12.5 (≈ 42 µM)	100 (≈ 336 µM)	12.5 (≈ 42 µM)	100 (≈ 336 µM)	25 (≈ 84 µM)	100 (≈ 336 µM)				CC1CCN(CC2CCC/C(=C\c3ccccc3)C2=O)CC1 (stereo not given)			
12.5 (≈ 34.8 µM)	12.5 (≈ 34.8 µM)	25 (≈ 69.5 µM)	100 (≈ 278 µM)	50 (≈ 139 µM)	100 (≈ 278 µM)				COc1cc(/C=C2\CCC(CN3CCCCC3)C2=O)cc(OC)c1OC (stereo not given)			
6.25 (≈ 20.9 µM)	12.5 (≈ 41.7 µM)	6.25 (≈ 20.9 µM)	12.5 (≈ 41.7 µM)	12.5 (≈ 41.7 µM)	100 (≈ 334 µM)				COc1ccccc1/C=C1\CCC(CN2CCCCC2)C1=O (stereo not given)		inactive	inactive
3.12 (≈ 10.4 µM)	12.5 (≈ 41.5 µM)	1.56 (≈ 5.18 µM)	6.25 (≈ 20.7 µM)	6.25 (≈ 20.7 µM)	200 (≈ 664 µM)				COc1ccc(/C=C2\CCC(CN3CCOCC3)C2=O)cc1 (stereo not given)		inactive	inactive
6.25 (≈ 21.9 µM)	12.5 (≈ 43.8 µM)	1.56 (≈ 5.47 µM)	3.12 (≈ 11 µM)	6.25 (≈ 21.9 µM)	25 (≈ 87.6 µM)				Cc1ccc(/C=C2\CCC(CN3CCOCC3)C2=O)cc1 (stereo not given)			
